Test results: paper PMC11491487 (Nature Communications, 2024)
Where “and” joins values, the source holds several entries; their conditions need not be identical. Identical values can stand only once.

What was measured:
[1] = molecular target: T1, rRyR1 C4657I (Oryctolagus cuniculus, UniProt P11716, C4657I); assay: time-lapse [Ca2+]ER fluorescence assay, HEK293 cells; format: cell-based, rabbit; conditions: n = 3
T1 construct: expressed in transfected cells

[2] = molecular target: T2, chiRyR (Oryctolagus cuniculus, UniProt P11716, C4657I/F4564Y/L4792S/R4563K); assay: cell-based; parameters: species or system rabbit
[3] = molecular target: T3, rRyR1 R4563K (Oryctolagus cuniculus, UniProt P11716, R4563K); assay: time-lapse [Ca2+]ER fluorescence assay, HEK293 cells; format: cell-based, rabbit; conditions: n = 3
T3 construct: expressed in transfected cells

[4] = molecular target: T2, chiRyR; assay: biochemical; format: biochemical, rabbit
[5] = molecular target: T4, chiRyR-I4657M/G4819E (Oryctolagus cuniculus, UniProt P11716, C4657M/F4564Y/G4819E/L4792S/R4563K); assay: biochemical; format: biochemical, rabbit
[6] = molecular target: Sf RyR (Spodoptera frugiperda, UniProt A0A4P8L6R5); assay: time-lapse [Ca2+]ER fluorescence assay, HEK293 cells; format: cell-based
[7] = molecular target: T4, chiRyR-I4657M/G4819E; assay: cell-based; parameters: species or system rabbit
[8] = molecular target: T5, rRyR1 L4792S (Oryctolagus cuniculus, UniProt P11716, L4792S); assay: time-lapse [Ca2+]ER fluorescence assay, HEK293 cells; format: cell-based, rabbit; conditions: n = 3
T5 construct: expressed in transfected cells

[9] = system: Drosophila melanogaster RyR G4915E; assay: Bioassay of gene-edited Drosophila melanogaster (feeding, mortality after 24 h); format: in vivo; parameters: key to LD50: AA.: All alive
[10] = system: Spodoptera frugiperda; parameters: method as in PMID 31157506; conditions: in vivo; cited from earlier work
[11] = system: diamondback moth (Plutella xylostella); conditions: in vivo; cited from earlier work
[12] = system: Drosophila melanogaster RyR M4758I; assay: Bioassay of gene-edited Drosophila melanogaster (feeding, mortality after 24 h); format: in vivo; conditions: 24 h feeding, n = 30
[13] = molecular target: rRyR1 (Oryctolagus cuniculus, UniProt P11716); assay: time-lapse [Ca2+]ER fluorescence assay, HEK293 cells; format: cell-based, rabbit
[14] = molecular target: Sf RyR_I4734M/G4891E (Spodoptera frugiperda, UniProt A0A4P8L6R5, G4891E/I4734M); assay: cell-based

Compound: Cc1cc(C(F)(C(F)(F)F)C(F)(F)F)ccc1NC(=O)c1cccc(I)c1C(=O)NC(C)(C)CS(C)(=O)=O [FLU, flubendiamide]
- EC50 [1]: 8.9 µM
- EC50 [2]: 25.1 nM
- F/F0 ([2]; FLU 1e-5 uM): 0.9549 and 0.9506 and 0.9676
- F/F0 ([2]; FLU 0.0001 uM): 0.9787 and 0.9683 and 0.9464
- F/F0 ([2]; FLU 0.01 uM): 0.8614 and 0.8526 and 0.8697
- F/F0 ([2]; FLU 0.1 uM): 0.4361 and 0.3436
- F/F0 ([2]; FLU 1 uM): 0.3549 and 0.3294 and 0.3747
- F/F0 ([2]; FLU 10 uM): 0.336 and 0.3416 and 0.3434
- F/F0 ([2]; FLU 50 uM): 0.3259 and 0.3223 and 0.3318
- F/F0 ([2]; FLU 100 uM): 0.36 and 0.3376 and 0.3503
- EC50 [3]: 3.9 µM
- EC50 [4]: 4 ± 1.4 nM
- [3H]ryanodine binding (B/Bmax) ([4]; FLU 0.010 uM): 0.258 and 0.168 and 0.293 and 0.246
- [3H]ryanodine binding (B/Bmax) ([4]; FLU 0.100 uM): 0.203 and 0.262 and 0.293 and 0.332
- [3H]ryanodine binding (B/Bmax) ([4]; FLU 1.000 uM): 0.230 and 0.187 and 0.324
- [3H]ryanodine binding (B/Bmax) ([4]; FLU 10.000 uM): 0.281 and 0.305 and 0.277 and 0.254
- [3H]ryanodine binding (B/Bmax) ([4]; FLU 100.000 uM): 0.242 and 0.340 and 0.234 and 0.262
- [3H]ryanodine binding (B/Bmax) ([5]; FLU 10.000 uM): 0.017 and 0.021 and 0.023 and 0.012
- effect of the double mutation on activity ([5]; [3H]ryanodine binding assay): almost completely abolished
- F/F0 ([6]; FLU 1e-5 uM): 0.9517 and 0.959 and 0.9803 and 0.9606 and 0.9626 and 0.9095
- F/F0 ([6]; FLU 0.0001 uM): 0.9669 and 0.9979 and 0.9587
- F/F0 ([6]; FLU 0.001 uM): 0.9934 and 1.004 and 1.015 and 1.0081 and 0.9724 and 0.9466
- F/F0 ([6]; FLU 0.005 uM): 0.9953 and 0.9503 and 0.9362
- F/F0 ([6]; FLU 0.01 uM): 0.964 and 0.9628 and 0.9439 and 0.9365 and 0.909 and 0.8287
- F/F0 ([6]; FLU 0.1 uM): 0.6874 and 0.7084 and 0.7834 and 0.606 and 0.5494 and 0.4561
- F/F0 ([6]; FLU 0.3 uM): 0.3286 and 0.3161 and 0.2878
- F/F0 ([6]; FLU 0.5 uM): 0.3948 and 0.4026 and 0.4259 and 0.3563 and 0.3618 and 0.3874
- F/F0 ([6]; FLU 1 uM): 0.4531 and 0.5278 and 0.593 and 0.346 and 0.3891 and 0.3741
- F/F0 ([6]; FLU 3 uM): 0.282 and 0.3083 and 0.312
- F/F0 ([6]; FLU 30 uM): 0.2907 and 0.2708 and 0.2786
- F/F0 ([6]; FLU 50 uM): 0.5223 and 0.4644 and 0.4746 and 0.282 and 0.2723 and 0.2725
- F/F0 ([6]; FLU 100 uM): 0.3008 and 0.2711 and 0.266
- F/F0 ([6]; FLU 150 uM): 0.2772 and 0.2807 and 0.3032
- F/F0 ([6]; FLU 200 uM): 0.2827 and 0.3427 and 0.3531
- EC50 ([6]; n = 3, read-out: EC50): 59.3 nM
- F/F0 ([7]; FLU 1e-5 uM): 0.9575 and 0.97 and 0.9884
- F/F0 ([7]; FLU 0.1 uM): 0.9705 and 0.977 and 1.0074
- F/F0 ([7]; FLU 0.5 uM): 0.9668 and 0.9819 and 0.9464
- F/F0 ([7]; FLU 1 uM): 0.9823 and 0.9988 and 0.9262
- F/F0 ([7]; FLU 10 uM): 0.9522 and 0.929 and 0.9507
- F/F0 ([7]; FLU 50 uM): 0.9714 and 0.9397 and 0.895
- F/F0 ([7]; FLU 100 uM): 0.9721 and 0.9871 and 0.9807
- F/F0 ([7]; FLU 200 uM): 0.9521 and 0.9361 and 0.9719
- effect of the double mutation on activity ([7]; time-lapse assay): almost completely abolished
- EC50 [8]: 209 nM
- LD50 ([9]; 24 h feeding, n = 30): AA.
- lethality ([9]; in vivo): can no longer kill
- fold decreased sensitivity [10]: 5,400 fold
- fold decrease in sensitivity [11]: > 200 fold
- LD50 [12]: 10.4 µM
- EC50 [13]: 4.5 µM
- F/F0 ([13]; FLU 0.01 uM): 0.9514 and 0.951 and 0.9574
- F/F0 ([13]; FLU 0.3 uM): 0.9294 and 0.929 and 0.9697
- F/F0 ([13]; FLU 1 uM): 0.9591 and 0.9606 and 0.9686
- F/F0 ([13]; FLU 3 uM): 0.9637 and 0.9616 and 0.9316
- F/F0 ([13]; FLU 10 uM): 0.9738 and 0.9803 and 0.9687
- F/F0 ([13]; FLU 30 uM): 0.9272 and 0.9023 and 0.8951
- F/F0 ([13]; FLU 100 uM): 0.8351 and 0.825 and 0.8009
- F/F0 ([13]; FLU 150 uM): 0.7879 and 0.7717 and 0.7578
- EC50 [14]: > 300 µM
- F/F0 ([14]; FLU 0.1 uM): 0.9354 and 1.022 and 1.001
- F/F0 ([14]; FLU 1 uM): 1.08 and 0.9898 and 1.013
- F/F0 ([14]; FLU 10 uM): 0.9775 and 0.9916 and 0.9858
- F/F0 ([14]; FLU 50 uM): 0.9682 and 0.9415 and 0.9568
- F/F0 ([14]; FLU 100 uM): 0.9687 and 0.9673 and 0.985
- F/F0 ([14]; FLU 150 uM): 1.01 and 0.9761 and 1.006
- F/F0 ([14]; FLU 200 uM): 1.016 and 0.9681 and 1.012
